Publication PMC3401626 (Chemmedchem, 2011)

Experiments:
AAC(3)-IV = biological target: T1, AAC(3)-IV (Salmonella sp, UniProt P08988); test: Inhibitors' selectivity: AAC; type: biochemical, Escherichia coli; details: inhibitor 200 to 0.2 μM; enzyme 0.25 μM
T1 sequence (P08988 with tags, fused parts or gaps limits assumed): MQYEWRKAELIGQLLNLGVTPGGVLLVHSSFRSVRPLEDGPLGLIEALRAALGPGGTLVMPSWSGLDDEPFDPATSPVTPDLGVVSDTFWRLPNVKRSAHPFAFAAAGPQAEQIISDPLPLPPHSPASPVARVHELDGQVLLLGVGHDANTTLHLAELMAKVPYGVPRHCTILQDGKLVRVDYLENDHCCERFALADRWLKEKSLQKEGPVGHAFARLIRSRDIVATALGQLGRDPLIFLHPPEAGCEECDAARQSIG

AAC(2′)-Ic = AAC(2′)-Ic (Mycobacterium tuberculosis, UniProt P9WQG9); test: Inhibitors' selectivity: AAC; type: biochemical, Mtb; details: inhibitor 200 to 0.2 μM
Eis [1] = biological target: T2, Eis (Mycobacterium tuberculosis, UniProt P9WFK7); test: Eis inhibition, UV-Vis DTNB assay of aminoglycoside acetylation; type: biochemical; details: at least 3 trials
Eis [2] = biological target: T2, Eis; test: Mode of inhibition of Eis; type: biochemical; details: for Mode of inhibition against NEO: varying NEO 50-200 μM
[3] = cited from earlier work
AAC(6′)/APH(2″)-Ia = AAC(6′)/APH(2″)-Ia (Staphylococcus aureus, UniProt P0A0C1); test: Inhibitors' selectivity: AAC; type: biochemical; details: inhibitor 200 to 0.2 μM; enzyme 0.25 μM
Sequence of AAC(6′)/APH(2″)-Ia (P0A0C1 whole entry): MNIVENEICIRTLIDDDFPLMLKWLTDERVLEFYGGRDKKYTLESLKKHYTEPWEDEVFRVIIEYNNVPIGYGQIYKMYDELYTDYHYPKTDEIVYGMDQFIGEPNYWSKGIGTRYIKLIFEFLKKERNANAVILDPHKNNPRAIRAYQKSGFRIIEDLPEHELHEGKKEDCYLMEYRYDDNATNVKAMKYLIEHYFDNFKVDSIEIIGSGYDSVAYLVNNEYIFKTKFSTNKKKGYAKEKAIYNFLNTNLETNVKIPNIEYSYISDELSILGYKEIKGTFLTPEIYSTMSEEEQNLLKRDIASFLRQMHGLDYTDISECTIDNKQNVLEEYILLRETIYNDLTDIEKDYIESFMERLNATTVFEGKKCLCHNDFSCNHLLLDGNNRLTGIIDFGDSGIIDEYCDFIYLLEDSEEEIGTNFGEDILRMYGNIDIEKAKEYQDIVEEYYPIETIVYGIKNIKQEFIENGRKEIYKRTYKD

T2 sequence (P9WFK7 whole entry): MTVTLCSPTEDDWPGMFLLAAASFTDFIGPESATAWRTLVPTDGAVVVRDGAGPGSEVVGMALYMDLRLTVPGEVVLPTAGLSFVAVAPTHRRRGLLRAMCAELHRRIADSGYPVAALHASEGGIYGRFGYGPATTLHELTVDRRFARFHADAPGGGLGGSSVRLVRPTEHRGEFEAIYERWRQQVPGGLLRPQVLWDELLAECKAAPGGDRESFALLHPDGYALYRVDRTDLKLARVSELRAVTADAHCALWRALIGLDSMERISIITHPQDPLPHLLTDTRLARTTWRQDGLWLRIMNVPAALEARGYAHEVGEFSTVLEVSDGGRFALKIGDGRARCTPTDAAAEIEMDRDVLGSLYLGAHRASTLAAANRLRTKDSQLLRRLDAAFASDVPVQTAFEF
Sequence of AAC(2′)-Ic (P9WQG9 whole entry): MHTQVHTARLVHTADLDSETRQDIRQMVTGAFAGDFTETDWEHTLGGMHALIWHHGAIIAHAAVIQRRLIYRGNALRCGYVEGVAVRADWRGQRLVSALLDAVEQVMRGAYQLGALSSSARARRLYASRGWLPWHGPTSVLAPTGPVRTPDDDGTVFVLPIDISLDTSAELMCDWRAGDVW

## [H]/N=C(\N/C(=N/[H])NCCCCCCNC(=N)NC(=N)Nc1ccc(Cl)cc1)Nc1ccc(Cl)cc1 [Compound 6, chlorhexidine]
AAC(3)-IV
  inhibition of AAC(3)-IV: no significant inhibition
AAC(2′)-Ic
  inhibition of AAC(2′)-Ic: no significant inhibition
Eis [1]; Eis inhibition constants (IC50) using AMK, substrate AMK
  IC50: 321 ± 58 nM
Eis [1]; Eis inhibition constants (IC50) using KAN, substrate KAN
  IC50: 666 ± 193 nM
Eis [2]; substrate AMK, listed as chlorhexidine (6)
  Mode of inhibition against AMK: AG-competitive inhibitor
Eis [2]; substrate KAN, listed as chlorhexidine (6)
  Mode of inhibition against KAN: AG-competitive inhibitor
Eis [2]
  Mode of inhibition against NEO: competitive inhibitor
Eis [2]; listed as chlorhexidine (6)
  Mode of inhibition against NEO: AG-competitive inhibitor
[3]
  toxic effects on pulmonary tissues: toxic effects on pulmonary tissues
AAC(6′)/APH(2″)-Ia
  inhibition of AAC(6′)/APH(2″): no significant inhibition
